Legend:
Assay in all cases: radiometric filter-binding kinase assay
PAK6 (human) = PAK6 (human) (UniProt Q9NQU5)
MARK3 (human) = MARK3 (human) (UniProt P27448)
EPHA2 (human) = EPHA2 (human) (UniProt P29317)
HIPK2 (human) = HIPK2 (human) (UniProt Q9H2X6)
EEF2K (human) = EEF2K (human) (UniProt O00418); conditions: compound 1.0 µM
ROCK2 (rat) = conditions: accession and sequence are those of the human protein
RPS6KA5 KD1 KD2 (human) = RPS6KA5 KD1 KD2 (human) (UniProt O75582)
IKBKE (human) = IKBKE (human) (UniProt Q14164)
Chain of IKBKE (human) (Q14164 whole entry, looked up): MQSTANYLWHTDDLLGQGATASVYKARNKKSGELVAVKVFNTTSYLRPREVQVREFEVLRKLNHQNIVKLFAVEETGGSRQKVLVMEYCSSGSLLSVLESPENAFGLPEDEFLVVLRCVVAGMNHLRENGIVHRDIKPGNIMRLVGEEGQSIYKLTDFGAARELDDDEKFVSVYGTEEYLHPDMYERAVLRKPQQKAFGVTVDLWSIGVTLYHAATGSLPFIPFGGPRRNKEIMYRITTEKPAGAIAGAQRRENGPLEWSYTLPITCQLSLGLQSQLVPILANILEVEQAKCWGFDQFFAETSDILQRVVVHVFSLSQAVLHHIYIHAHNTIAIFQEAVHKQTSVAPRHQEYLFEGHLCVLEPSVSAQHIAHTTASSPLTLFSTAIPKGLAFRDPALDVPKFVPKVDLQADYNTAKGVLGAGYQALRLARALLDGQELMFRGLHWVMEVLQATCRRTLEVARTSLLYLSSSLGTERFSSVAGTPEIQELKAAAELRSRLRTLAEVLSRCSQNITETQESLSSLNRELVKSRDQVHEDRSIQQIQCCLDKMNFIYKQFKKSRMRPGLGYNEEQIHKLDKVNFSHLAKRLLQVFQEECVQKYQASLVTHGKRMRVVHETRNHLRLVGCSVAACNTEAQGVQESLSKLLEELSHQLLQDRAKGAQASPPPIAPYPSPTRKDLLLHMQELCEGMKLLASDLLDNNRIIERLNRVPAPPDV

PAK4 (human) = PAK4 (human) (UniProt O96013)
Chain of PAK4 (human) (O96013 whole entry, looked up): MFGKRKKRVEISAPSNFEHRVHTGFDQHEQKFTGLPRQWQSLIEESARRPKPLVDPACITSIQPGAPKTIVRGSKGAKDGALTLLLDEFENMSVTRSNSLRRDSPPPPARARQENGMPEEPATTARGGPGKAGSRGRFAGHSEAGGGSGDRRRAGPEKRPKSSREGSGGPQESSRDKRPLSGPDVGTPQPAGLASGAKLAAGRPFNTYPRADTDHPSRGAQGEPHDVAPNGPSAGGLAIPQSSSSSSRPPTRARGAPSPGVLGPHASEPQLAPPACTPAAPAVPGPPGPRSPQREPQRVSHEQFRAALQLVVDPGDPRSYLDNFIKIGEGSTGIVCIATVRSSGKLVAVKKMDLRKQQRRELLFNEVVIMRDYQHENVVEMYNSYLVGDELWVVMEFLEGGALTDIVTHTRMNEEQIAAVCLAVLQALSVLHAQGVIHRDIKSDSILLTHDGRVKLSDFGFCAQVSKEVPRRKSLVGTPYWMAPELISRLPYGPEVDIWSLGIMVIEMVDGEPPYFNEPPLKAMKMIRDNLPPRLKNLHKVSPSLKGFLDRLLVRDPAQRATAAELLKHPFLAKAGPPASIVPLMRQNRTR

PAK7 (human) = PAK7 (human) (UniProt Q9P286)
PRKCZ (human) = PRKCZ (human) (UniProt Q05513)
Chain of PRKCZ (human) (Q05513 whole entry, looked up): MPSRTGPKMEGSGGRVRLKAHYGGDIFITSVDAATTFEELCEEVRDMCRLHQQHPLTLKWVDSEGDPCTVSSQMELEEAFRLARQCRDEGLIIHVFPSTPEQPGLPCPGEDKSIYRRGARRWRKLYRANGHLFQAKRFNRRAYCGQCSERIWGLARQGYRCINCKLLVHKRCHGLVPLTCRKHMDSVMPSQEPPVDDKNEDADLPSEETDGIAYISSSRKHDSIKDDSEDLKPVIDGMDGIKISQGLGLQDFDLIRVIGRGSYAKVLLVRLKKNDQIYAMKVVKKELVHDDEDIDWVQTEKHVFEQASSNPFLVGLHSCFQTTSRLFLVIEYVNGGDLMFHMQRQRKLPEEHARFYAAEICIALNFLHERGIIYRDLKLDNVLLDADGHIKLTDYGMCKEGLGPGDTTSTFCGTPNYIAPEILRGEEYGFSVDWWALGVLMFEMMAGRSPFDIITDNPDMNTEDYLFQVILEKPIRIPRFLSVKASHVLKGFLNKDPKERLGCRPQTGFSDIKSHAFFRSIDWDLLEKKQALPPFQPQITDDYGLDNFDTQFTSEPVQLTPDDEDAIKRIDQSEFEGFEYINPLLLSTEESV

MAPK14 (human) = MAPK14 (human) (UniProt Q16539)
CaMK1 (human) = CaMK1 (human) (UniProt Q14012)
[1] = test system: AKT1 (human), P31749 [S473D]
Chain of AKT1 (human), P31749 [S473D] (P31749 whole entry S473D, looked up): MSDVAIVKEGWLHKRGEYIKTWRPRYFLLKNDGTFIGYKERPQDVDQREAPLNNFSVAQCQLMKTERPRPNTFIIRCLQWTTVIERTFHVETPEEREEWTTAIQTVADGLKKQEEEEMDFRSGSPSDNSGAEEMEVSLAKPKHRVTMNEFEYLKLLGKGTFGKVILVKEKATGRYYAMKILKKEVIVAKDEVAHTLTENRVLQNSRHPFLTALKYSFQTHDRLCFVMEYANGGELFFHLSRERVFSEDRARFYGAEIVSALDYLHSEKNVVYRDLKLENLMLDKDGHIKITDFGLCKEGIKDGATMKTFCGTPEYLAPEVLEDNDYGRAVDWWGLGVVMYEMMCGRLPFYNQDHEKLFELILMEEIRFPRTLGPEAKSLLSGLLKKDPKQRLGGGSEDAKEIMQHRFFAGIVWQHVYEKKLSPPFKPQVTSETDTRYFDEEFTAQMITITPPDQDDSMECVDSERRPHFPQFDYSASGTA

EPHB3 (human) = EPHB3 (human) (UniProt P54753); conditions: compound 10.0 µM
MAPK11 (human) = MAPK11 (human) (UniProt Q15759)
Chain of MAPK11 (human) (Q15759 whole entry, looked up): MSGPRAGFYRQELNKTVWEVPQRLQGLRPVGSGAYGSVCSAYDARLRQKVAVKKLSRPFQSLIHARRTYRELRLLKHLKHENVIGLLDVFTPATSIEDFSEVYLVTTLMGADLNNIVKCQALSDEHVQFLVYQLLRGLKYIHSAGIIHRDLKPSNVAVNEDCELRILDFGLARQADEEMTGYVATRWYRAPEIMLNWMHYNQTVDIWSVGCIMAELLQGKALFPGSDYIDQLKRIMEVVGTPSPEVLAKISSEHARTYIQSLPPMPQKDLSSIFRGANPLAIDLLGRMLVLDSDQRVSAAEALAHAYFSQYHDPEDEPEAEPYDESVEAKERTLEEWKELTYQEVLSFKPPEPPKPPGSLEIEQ

DYRK1A (human) = DYRK1A (human) (UniProt Q13627)
MAPKAPK5 (human) = MAPKAPK5 (human) (UniProt Q8IW41); conditions: compound 10.0 µM
DYRK3 (human) = DYRK3 (human) (UniProt O43781)
CSNK2A1 (human) = CSNK2A1 (human) (UniProt P68400)
LCK (mouse) = conditions: accession and sequence are those of the human protein
MST4 (human) = MST4 (human) (UniProt Q9P289)
BTK (human) = BTK (human) (UniProt Q06187)
MAPK13 (human) = MAPK13 (human) (UniProt O15264)
NEK6 (human) = NEK6 (human) (UniProt Q9HC98); conditions: compound 1.0 µM
DYRK2 (human) = DYRK2 (human) (UniProt Q92630)

Chain of HIPK2 (human) (Q9H2X6 whole entry, looked up): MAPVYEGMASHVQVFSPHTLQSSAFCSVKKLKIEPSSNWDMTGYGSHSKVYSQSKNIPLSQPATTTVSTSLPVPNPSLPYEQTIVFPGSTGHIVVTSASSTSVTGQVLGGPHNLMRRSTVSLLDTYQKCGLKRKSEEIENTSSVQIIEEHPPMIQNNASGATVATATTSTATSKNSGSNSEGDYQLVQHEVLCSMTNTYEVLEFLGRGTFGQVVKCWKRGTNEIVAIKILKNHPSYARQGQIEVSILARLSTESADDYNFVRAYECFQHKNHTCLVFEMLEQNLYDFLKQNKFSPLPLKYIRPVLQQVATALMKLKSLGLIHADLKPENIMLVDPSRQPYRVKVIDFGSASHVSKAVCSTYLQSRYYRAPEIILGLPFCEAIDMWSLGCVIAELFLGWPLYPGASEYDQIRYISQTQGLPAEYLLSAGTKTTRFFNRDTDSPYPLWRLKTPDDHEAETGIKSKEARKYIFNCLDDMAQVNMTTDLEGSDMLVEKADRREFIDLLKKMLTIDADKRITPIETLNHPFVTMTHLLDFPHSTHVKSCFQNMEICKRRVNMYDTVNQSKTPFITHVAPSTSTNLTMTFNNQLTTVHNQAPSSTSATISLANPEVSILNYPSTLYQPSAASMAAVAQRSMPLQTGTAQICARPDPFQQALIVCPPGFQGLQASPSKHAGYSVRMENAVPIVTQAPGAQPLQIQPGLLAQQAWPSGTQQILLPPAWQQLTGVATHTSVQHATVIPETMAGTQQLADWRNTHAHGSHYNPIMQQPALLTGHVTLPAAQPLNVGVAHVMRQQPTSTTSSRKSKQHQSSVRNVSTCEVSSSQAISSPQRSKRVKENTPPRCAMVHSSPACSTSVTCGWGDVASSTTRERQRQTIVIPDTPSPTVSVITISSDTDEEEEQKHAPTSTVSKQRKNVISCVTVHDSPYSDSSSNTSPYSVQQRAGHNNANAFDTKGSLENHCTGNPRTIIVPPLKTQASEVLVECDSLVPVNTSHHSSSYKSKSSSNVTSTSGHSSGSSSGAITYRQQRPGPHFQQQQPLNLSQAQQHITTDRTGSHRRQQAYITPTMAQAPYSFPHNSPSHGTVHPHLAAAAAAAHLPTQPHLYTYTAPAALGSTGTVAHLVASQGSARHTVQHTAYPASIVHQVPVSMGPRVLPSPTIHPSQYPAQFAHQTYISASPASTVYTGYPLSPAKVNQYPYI
Chain of RPS6KA5 KD1 KD2 (human) (O75582 whole entry, looked up): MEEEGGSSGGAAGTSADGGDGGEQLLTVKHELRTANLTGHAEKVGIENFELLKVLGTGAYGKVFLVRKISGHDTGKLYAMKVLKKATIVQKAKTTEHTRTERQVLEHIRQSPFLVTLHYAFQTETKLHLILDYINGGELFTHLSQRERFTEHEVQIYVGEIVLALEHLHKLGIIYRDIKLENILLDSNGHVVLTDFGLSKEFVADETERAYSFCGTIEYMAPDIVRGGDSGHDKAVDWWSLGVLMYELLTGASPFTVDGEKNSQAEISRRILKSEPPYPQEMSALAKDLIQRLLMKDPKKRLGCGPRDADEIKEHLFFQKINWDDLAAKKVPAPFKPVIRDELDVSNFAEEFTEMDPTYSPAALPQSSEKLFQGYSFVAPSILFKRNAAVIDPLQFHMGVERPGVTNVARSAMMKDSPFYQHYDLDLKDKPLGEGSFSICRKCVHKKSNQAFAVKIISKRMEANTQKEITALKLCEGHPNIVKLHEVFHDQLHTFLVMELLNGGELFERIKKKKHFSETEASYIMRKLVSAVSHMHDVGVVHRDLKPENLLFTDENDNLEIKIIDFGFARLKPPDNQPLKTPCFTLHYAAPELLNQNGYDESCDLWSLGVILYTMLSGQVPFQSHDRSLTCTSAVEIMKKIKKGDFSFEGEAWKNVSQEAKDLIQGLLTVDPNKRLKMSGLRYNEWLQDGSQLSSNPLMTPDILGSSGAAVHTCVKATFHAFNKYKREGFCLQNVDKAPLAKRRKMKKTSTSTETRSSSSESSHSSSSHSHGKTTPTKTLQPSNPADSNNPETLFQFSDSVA

For Cc1cc(SCc2sc(-c3ccc(C(F)(F)F)cc3)nc2C)ccc1OCC(=O)O, which residual activity (PAK6 (human); compound 1.0 µM) is on record?
The residual activity was 97%.

And the residual activity (PAK6 (human); compound 10.0 µM)?
Its residual activity is 109%.

And the residual activity (MARK3 (human); compound 1.0 µM)?
Its residual activity is 93%.

What about the residual activity (MARK3 (human); compound 10.0 µM) of the same compound?
Its residual activity is 91%.

And the residual activity (EPHA2 (human); compound 1.0 µM)?
Its residual activity is 103%.

What about the residual activity (EPHA2 (human); compound 10.0 µM) of the same compound?
Its residual activity is 113%.

And the residual activity (HIPK2 (human); compound 1.0 µM)?
The residual activity was 101%.

What about the residual activity (HIPK2 (human); compound 10.0 µM) of the same compound?
Its residual activity is 156%.

And the residual activity (EEF2K (human))?
Its residual activity is 80%.

What about the residual activity (ROCK2 (rat); compound 1.0 µM) of the same compound?
Its residual activity is 99%.

And the residual activity (ROCK2 (rat); compound 10.0 µM)?
Its residual activity is 91%.

What about the residual activity (RPS6KA5 KD1 KD2 (human); compound 1.0 µM) of the same compound?
The residual activity was 96%.

And the residual activity (RPS6KA5 KD1 KD2 (human); compound 10.0 µM)?
The residual activity was 92%.

What about the residual activity (IKBKE (human); compound 1.0 µM) of the same compound?
Its residual activity is 92%.

And the residual activity (IKBKE (human); compound 10.0 µM)?
Its residual activity is 92%.

And the residual activity (PAK4 (human); compound 1.0 µM)?
Its residual activity is 87%.

And the residual activity (PAK4 (human); compound 10.0 µM)?
Its residual activity is 66%.

And the residual activity (PAK7 (human); compound 1.0 µM)?
Its residual activity is 97%.

What about the residual activity (PAK7 (human); compound 10.0 µM) of the same compound?
The residual activity was 111%.

And the residual activity (PRKCZ (human); compound 1.0 µM)?
The residual activity was 79%.

What about the residual activity (PRKCZ (human); compound 10.0 µM) of the same compound?
The residual activity was 74%.

And the residual activity (MAPK14 (human); compound 1.0 µM)?
Its residual activity is 82%.

What about the residual activity (MAPK14 (human); compound 10.0 µM) of the same compound?
The residual activity was 98%.

What about the residual activity (CaMK1 (human); compound 1.0 µM) of the same compound?
Its residual activity is 95%.

What about the residual activity (CaMK1 (human); compound 10.0 µM) of the same compound?
The residual activity was 62%.

What about the residual activity ([1]; compound 1.0 µM) of the same compound?
The residual activity was 107%.

What about the residual activity ([1]; compound 10.0 µM) of the same compound?
The residual activity was 105%.

What about the residual activity (EPHB3 (human)) of the same compound?
Its residual activity is 115%.

What about the residual activity (MAPK11 (human); compound 1.0 µM) of the same compound?
The residual activity was 91%.

What about the residual activity (MAPK11 (human); compound 10.0 µM) of the same compound?
Its residual activity is 94%.

What about the residual activity (DYRK1A (human); compound 1.0 µM) of the same compound?
Its residual activity is 87%.

What about the residual activity (DYRK1A (human); compound 10.0 µM) of the same compound?
Its residual activity is 59%.

And the residual activity (MAPKAPK5 (human))?
Its residual activity is 39%.

And the residual activity (DYRK3 (human); compound 1.0 µM)?
The residual activity was 83%.

What about the residual activity (DYRK3 (human); compound 10.0 µM) of the same compound?
The residual activity was 81%.

What about the residual activity (CSNK2A1 (human); compound 1.0 µM) of the same compound?
The residual activity was 84%.

And the residual activity (CSNK2A1 (human); compound 10.0 µM)?
The residual activity was 79%.

What about the residual activity (LCK (mouse); compound 1.0 µM) of the same compound?
The residual activity was 106%.

What about the residual activity (LCK (mouse); compound 10.0 µM) of the same compound?
The residual activity was 98%.

What about the residual activity (MST4 (human); compound 1.0 µM) of the same compound?
The residual activity was 104%.

What about the residual activity (MST4 (human); compound 10.0 µM) of the same compound?
The residual activity was 83%.

And the residual activity (BTK (human); compound 1.0 µM)?
The residual activity was 92%.

What about the residual activity (BTK (human); compound 10.0 µM) of the same compound?
The residual activity was 95%.

What about the residual activity (MAPK13 (human); compound 1.0 µM) of the same compound?
The residual activity was 102%.

And the residual activity (MAPK13 (human); compound 10.0 µM)?
The residual activity was 105%.

And the residual activity (NEK6 (human))?
Its residual activity is 101%.

What about the residual activity (DYRK2 (human); compound 1.0 µM) of the same compound?
Its residual activity is 103%.

What about the residual activity (DYRK2 (human); compound 10.0 µM) of the same compound?
The residual activity was 111%.
